Values quoted from earlier work in patent US20060002865A1, “Stable baking soda/peroxide with calcium and phosphate whitening product” (priority 2004, published 2006).
One block for each molecule: values may come before it.

Columns and labels:
[1] = aqueous solution, pH about 7.0, about 25° C.

- solubility in water: about 2.5%
Molecule: Sodium perborate

- solubility in water (in words): essentially insoluble
Molecule: [Mg+2].[O-][O-] [Magnesium peroxide]

Molecule: O.O.O=P([O-])([O-])O.[Ca+2] [dicalcium phosphate dihydrate]
- calcium cations released [1]: about 40 ppm
